Measured values from US3987055A, “Azasteroids compounds and derivatives” (The Board of Regents for the Oklahoma Agricultural & …, priority 1974, dated 1976).
Where “and” joins values, the source holds several entries; their conditions need not be identical. Identical values can stand only once. Numbered stars: 1 amine (or outer) side, 2 acyl side, 3 side chain; on linkers, the order of the positions; unused ones are H or OH. Bridge positions count the residues as written; N and C are the ends. Square brackets hold non-standard residues; d marks the D form. Peptide text beside a SMILES is read from it. I, II: the chains in the order shown. Actinocin(9to1) = Cc1c2oc3c(C)ccc(C(=O)[*:1])c3nc-2c(C(=O)[*:2])c(N)c1=O; NMeV = CN[C@H](C(=O)O)C(C)C; Sar = CNCC(=O)O

Columns and labels:
[1] = test system: rat testis tubules; experiment: lysine-U-14C incorporation into protein by rat testis tubules in vitro; format: cell-based; conditions: for AVERAGE OF TWO FLASK lysine incorporation: average of two flasks; for protein synthesis by teased testis tubules: in words; for lysine incorporation into protein per 100 mg / lysine incorporation into protein per flask: individual flask, 250 mg per flask (so in the source), 1 hour, 33° C
Procedure: (§1) For these investigations the compounds were diluted in a minimal amount of ethanol and further diluted in saline (0.85%) so that the final concentration was 1 mg/ml. The compounds were placed in solution and gassed under N2 and stored at 5° C until used 2 days later for the in vitro incubation studies. Details of the in vitro incubation procedures may be found in Endocrinology 89:791-800 (1971).
The effects of the compounds on the incorporation of lysine -U-^14 C into trichloroacetic (TCA) precipitable protein of rat testes was investigated by incubating about 200 mg of teased testis tubules from mature rats in a 25 ml Erlenmeyer flask containing 3 ml of Krebs Ringer bicarbonate buffer (pH 7.4), L-lysine-U-^14 C (0.5 μCi; 0.1mM), glucose (10 mM) and 0.25 ml of the azasteroid to be tested. The flasks were incubated for 1 hour at 33° C under 95% O2 : 5% CO2 and the TCA precipitable protein was isolated and an aliquot used to measure radioactivity.
CPM = counts per minute. All compounds were tested in a concentration of […]

[2] = test system: rat testis tubules; experiment: glucose oxidation (glucose-U-14C) by rat testis tubules in vitro; format: cell-based; conditions: for AVERAGE glucose oxidation: average of flasks; for depression of glucose oxidation in vitro: in words; for GLUCOSE OXIDATION per 100 mg / GLUCOSE OXIDATION per flask: individual flask, 250 mg per flask (so in the source), 2 hours, 33° C; for % DEVIATION FROM CONTROL, glucose oxidation: versus saline, 120 min
Procedure: as §1
The effects of these compounds on glucose oxidation by testis tubules was examined by incubating about 200 mg of teased testis tubules from mature rats in a 25 ml Erlenmeyer flask containing 3 ml of Krebs Ringer bicarbonate buffer (pH 7.4), D-glucose-U-^14 C (0.5 μCi; 10mM) and 0.25 ml of the azasteroid (1 mg/ml) to be tested. The flasks were incubated for 2 hours at 33° C under 95% O2 :5% CO2. The reaction was terminated by adding 0.25 ml of 5 N H2 SO4. Carbon dioxide was trapped in 0.25 ml of hydroxide of Hyamine. The radioactivity present in the Hyamine was determined by liquid scintillation spectrometry. This table includes a detailed summary of the results obtained and an average for each compound. […] Thus, the compounds have potential for antifertility activity in the control of wild rodent populations and possibly stray animals such as dogs and cats.
CPM = counts per minute. Glucose-U-^14 C activity was 0.5 millicurie.
All compounds were tested in a concentration of 250 mg per flask.

[3] = effects on testis function: body, testis and seminal vesicle weight; format: in vivo, mice (ICR-Swiss adult male); conditions: average; 0.2 mg per day s.c., 10 days
Procedure: The compounds as shown in Table 7 were dissolved in a minimal amount of ethanol and diluted in sesame oil (1 mg/ml). After dilution, samples were stored at 5° C in the dark and flushed with N2 every 24 hours. The compounds were injected subcutaneously into adult male mice for a period of 10 days. Each mouse injected received a total dose of 2 mg over the 10 day period or 0.2 mg per day. The mice were random bred males of the ICR-Swiss strain and were used in the study when they reached 75±2 days of age. Mice were maintained in air-conditioned and light-controlled (14 hour light/24 hour) animal quarters and provided with lab food and water ad libitum. Animals were necropsied 24 hours after the last injection. Testes and seminal vesicles were excised, trimmed of adhering tissue and weighed fresh at the nearest one-tenth milligram.

[4] = test system: sarcoma 180 ascitis cells; experiment: antitumor activity, sarcoma 180 ascites in mice, survival; format: in vivo, mice (Swiss albino CD-1 female); conditions: i.p., 5 injections
Procedure: The test system utilized involved Swiss albino CD-1 female mice weighing 25-27 grams which were injected (i.p.) with 1 × 10^6 viable sarcoma 180 ascitis cells. Chemotherapy was initiated 24 hours post-injection with a protocol of five intra-peritonaeal injections at 24 hour intervals.
Animals were weighted at 24 hour intervals and the survival time recorded for each test group.

[5] = test system: L-M cells; experiment: growth inhibition of mouse L-M cell line; format: cell-based
Procedure: Cells (1 × 10^5 /ml) were added to the "incubated" compound-containing medium.

[6] = test system: Cells (1 × 10^5 /ml); experiment: potency after pre-incubation of compound in growth medium without cells; format: cell-based; conditions: 4 days
Procedure: To ascertain if the potency of compound 5d was reduced during the incubation in the growth medium in the absence of cells, compound 5d (20 μg/ml) was added to the medium and incubated at 37° C on a shaker for 4 days. Cells (1 × 10^5 /ml) were added to the "incubated" compound-containing medium. The inhibition pattern obtained from the "incubated" medium was identical to that obtained when compound 5d (20 μg/ml) was added simultaneously with the inoculation. […] Since the compounds are not inactivated by serum, their effectiveness for animal use or human tests is enhanced. This fact is stressed in animal studies recited in Example IX below.

[7] = test system: KB cells; experiment: growth inhibition of human tumor KB cell line; format: cell-based; conditions: 10 μg/ml or greater, read-out: concentration at which growth was inhibited
Procedure: For example, growth of both the human tumor KB* and the mouse L-M** cell lines was inhibited when the cells were grown in media containing 10 μg/ml or greater

[8] = test system: acid phosphatase, KB and L-M cells; experiment: relative acid phosphatase staining (permeability of lysosomal membrane) of KB and L-M cells; format: cell-based, human (KB) and mouse (L-M); design: key to Relative acid phosphatase staining: light: cells showing only a few scattered granules; medium: more dense but distinct isolated granules were still detected; heavy: a more intense staining with fewer discrete granules; conditions: 20 μg/ml
Procedure: KB and L-M cells were grown on coverslips in medium 199 with 10% calf serum for the 24 hour growth prior to staining in the presence or absence of compound 5c (20 μg/ml) or compound 5d (20 μg/ml). The cells were washed in Hanks' salt solution, incubated at 37° C in Gomori's substrate solution for 1, 2, or 3 hours, washed, treated with a 1% solution of ammonium sulfide, washed, mounted and observed microscopically. Light staining was designated as cells showing only a few scattered granules; medium staining was more dense but distinct isolated granules were still detected; and heavy staining a more intense staining with fewer discrete granules. Heavy staining denotes increased phosphatase activity.
The acid phosphatase activity was measured in KB and L-M cells grown in medium in the presence or absence compound 5c or 5d (20 μg/ml) for 2 or 24 hours prior to staining (Table 2). Quantitative evaluation of the relative staining intensity of the lysosomes was compared in the treated and untreated cells. […] Thus, cells grown in the presence of compound 5c accumulate the phosphatase substrate within the lysosomes much more rapidly than the control or compound 5d treated cells indicating the compounds ability to alter membrane permeability and thus regulate the accumulation of essential metabolites. Control of this cellular capacity permits regulation of cell division so important in cancer chemotherapy. Since the permeation of the substrate is the rate-limiting step in the phosphatase determination, compound 5c produces a modification of the lysosomal membrane which increased the permeability of the lysosome to the substrate. The results also emphasize the difference in biological activity of compound 5c and 5d type molecules which chemically are similar except at C-3. Differences in the biological activity have been observed when the compounds were tested using various bacteria.

[9] = test system: KB cells; experiment: relative plating efficiency of KB cells (colony formation, 7 days); format: cell-based, human
Procedure: The KB cells were plated in plastic tissue culture dishes and grown in a 5% CO2 gas phase incubator for 7 days. The medium was removed, the plates washed with Hanks' salt solution and the cells stained with a 0.5% aqueous crystal violet solution, rinsed and dried. The colonies were counted and the relative plating efficiency calculated using the number of control colonies as 100 percent.

[10] = test system: B. subtilis W23; experiment: antimicrobial activity in combination with selected antibiotics; format: cell-based; conditions: alone; B. subtilis W23
Procedure: Several antibiotics act at the cell surface. The antimicrobial activity of the hydroxybenzindazole in combination with selected antibiotics was measured.
Both Polymyxin (Pfizer, Inc.) and Circulin (Upjohn Co.) are surface active compounds thought to cause disorganization of the cell membrane leading to a loss of intracellular components. The enhanced antimicrobial activity observed with the combination of hydroxybenzindazole and antibiotics denotes a more pronounced distortion in the cell surface. Thus, much lower concentrations of the compounds can be used in medicinal applications providing an opportunity for toxic compounds to have greater medicinal applicability and use.
Failure of the mixture of hydroxybenzindazole and chloramphenicol to show an enhanced inhibition of growth could be correlated with the internal site of action of chloramphenicol, which is blockage of the binding of the 30s and 50s ribosomal subunits.

Row | SMILES | AVERAGE OF TWO FLASK lysine incorporation [1] | protein synthesis by teased testis tubules [1] | lysine incorporation into protein per 100 mg [1] | lysine incorporation into protein per flask [1] | AVERAGE glucose oxidation [2] | depression of glucose oxidation in vitro [2] | GLUCOSE OXIDATION per 100 mg [2] | GLUCOSE OXIDATION per flask [2] | % DEVIATION FROM CONTROL, glucose oxidation [2] | Body Weight [3] [g] | Mg Testes Per g Body Wt. [3] [Mg per g] | Seminal Vesicle weight [3] [mg] | Testes Paired weight [3] [mg] | other results
1 | CC12CCc3cc(O)ccc3C1=NNC2=O (racemic) [Compound 4c] | 1,389 CPM/100 mg tissue | depress protein synthesis | 1,309 CPM/100 mg and 1,470 CPM/100 mg | 2,575 CPM/FLASK and 2,925 CPM/FLASK | 8,705 CPM/100 mg TISSUE | comparable to saline | 8,847 CPM/100 mg and 8,564 CPM/100 mg | 17,350 CPM/FLASK and 17,325 CPM/FLASK | -19.94% | 35.7 | 7.28 | 82.1 | 261.0 | 
2 | Cc1c2oc3c(C)ccc(C(=O)N[C@@H]4C(=O)N[C@H](C(C)C)C(=O)N5CCC[C@H]5C(=O)N(C)CC(=O)N(C)[C@@H](C(C)C)C(=O)O[C@@H]4C)c3nc-2c(C(=O)N[C@@H]2C(=O)N[C@H](C(C)C)C(=O)N3CCC[C@H]3C(=O)N(C)CC(=O)N(C)[C@@H](C(C)C)C(=O)O[C@@H]2C)c(N)c1=O [Actinomycin D, reference compound] (I: T[dV]P[Sar][NMeV] / II: T[dV]P[Sar][NMeV]; ester I:1-I:C, II:1-II:C; linker I:N-II:N via Actinocin(9to1)) |  |  |  |  |  |  |  |  |  |  |  |  |  | Survival ratio T/C (survival time of test animal / control animal) ([4]; 4 μg/injection, total 20 μg): 1.9
3 | COc1ccc2c3c(ccc2c1)C1=NCCC1(C)CC3 (stereo not shown) [Compound 5d, 1,10,11,11a-tetrahydro-7-methoxy-11a-methyl-2H-naphth[1,2-g]indole] | 1,565 CPM/100 mg tissue | depress protein synthesis | 1,585 CPM/100 mg and 1,546 CPM/100 mg | 3,225 CPM/FLASK and 3,125 CPM/FLASK | 12,140 CPM/100 mg TISSUE | depressed glucose oxidation in vitro more than compounds 4 c and 11b | 16,081 CPM/100 mg and 8,200 CPM/100 mg | 32,194 CPM/FLASK and 16,539 CPM/FLASK | +17.4% | 32.3 | 6.32 | 67.7 | 201.6 | growth rate versus control ([5]; 1 μg/ml): same growth rate as the control; growth inhibition at 20 μg/ml ([5]; 20 μg/ml): depressed the growth rate only slightly over the rate observed with 10 μg/ml; inhibition at 10 µg/mL ([5]; Mus musculus, 96 h, 10 μg/ml, fourth day, read-out: reduction in growth as compared to the control): 30%; minimal effective concentration ([5]; Mus musculus, L-M cells, 10 μg/ml or greater, read-out: concentration at which growth was inhibited): ≥ 10 µg/mL; inhibition pattern from incubated medium versus simultaneous addition ([6]; 20 μg/ml, medium pre-incubated 37° C): identical; detoxification by auto-oxidation or enzymatic (serum) processes in culture medium ([6]; 37° C): does not occur; minimal effective concentration [7]: ≥ 10 µg/mL; Relative acid phosphatase staining ([8]; 24 h, 1 hour in substrate): none and did not stain; Relative acid phosphatase staining ([8]; 24 h, 2 hours in substrate): light; Relative acid phosphatase staining ([8]; 24 h, 3 hours in substrate): medium; staining reaction versus control ([8]; 24 h, all three substrate incubation times): identical staining reactions; staining intensity versus untreated cells ([8]; cells treated for 2 hours): indistinguishable from untreated cells; effect on the relative plating efficiency ([9]; 1 μg/ml): little effect; inhibition of growth compared with control culture ([9]; 10 and 20 μg/ml): only a very slight inhibition of growth; activity at 1 µg/mL ([9]; Homo sapiens, KB, 168 h, 1 μg/ml): 97%; activity at 10 µg/mL ([9]; Homo sapiens, KB, 168 h, 10 μg/ml): 82%; activity at 20 µg/mL ([9]; Homo sapiens, KB, 168 h, 20 μg/ml): 79%
4 | Oc1ccc2c3c(ccc2c1)-c1[nH]ncc1CC3 [Compound 11a, 10,11-Dihydro-3H-naphth[1,2-g]indazol-7-ol] |  |  |  |  |  |  |  |  |  |  |  |  |  | Survival ratio T/C (survival time of test animal / control animal) ([4]; 0.8 μg/injection, total 4 μg): 1.0
5 | COc1ccc2c3c(ccc2c1)-c1[nH]ncc1CC3 [Compound 11b, 10,11-Dihydro-7-methoxy-3H-naphth[1,2-g]indazole] | 1,155 CPM/100 mg tissue | depress protein synthesis | 1,194 CPM/100 mg and 1,116 CPM/100 mg | 2,325 CPM/FLASK and 2,225 CPM/FLASK | 9,550 CPM/100 mg TISSUE | comparable to saline | 11,590 CPM/100 mg and 7,510 CPM/100 mg | 23,529 CPM/FLASK and 15,382 CPM/FLASK |  | 34.0 | 6.67 | 88.7 | 229.0 | 
6 | CC1(C)S[C@@H]2[C@H](NC(=O)Cc3ccccc3)C(=O)N2[C@H]1C(=O)O [penicillin, reference compound] |  |  |  |  |  |  |  |  |  |  |  |  |  | inhibition of growth, tested separately [10]: very slight inhibition of growth
